This passage reports melting point results from a melting point compilation (Tetko et al.; mined from patent text by program, amines drawn as free bases though some values may be those of a salt).

Regarding `Cc1ccc(N(c2ccc(C)cc2)c2c(C)cc(-c3cc(C)c(N(c4ccc(C)cc4)c4ccc5ccc6cccc7ccc4c5c67)c(C)c3)cc2C)cc1`, the melting point (as a rule, the temperature of the solid-liquid transition) was 198 to 199 °C.

Molecule `CC(c1oc2ccccc2c(=O)c1-c1ccccc1)n1nc(-c2cn[nH]c2)c2c(N)ncnc21` (stereo not given) registered a melting point of 214 to 217 °C. The molecule `COc1ccc(-c2noc(C(F)F)c2-c2ccc(S(N)(=O)=O)cc2)cc1F` came in with a melting point of 188 to 190 °C. The result for `O=C(O)c1n[nH]c2c1C=CC(c1ccccc1)(c1ccccc1)C2` reads over 260 °C; that for `C(=C1CC(c2ccccc2)Cc2ccccc21)c1cncn1Cc1ccccc1` (stereo not given), 198 °C; that for `O=C(NCc1ccc(Cl)cc1)c1cnc2ccc(CC3CCOCC3)cc2c1O`, 184 to 185 °C. Turning to `O=Cc1c(Cl)cc(CO)cc1Cl`, the melting point was in the range of 109 to 110 °C. As for `Cc1csc2nc(CO)cn12`, the melting point is 156 to 157 °C. The result for `COc1nc(C)nc(NC(=O)NS(=O)(=O)c2cccc3c2C(Cl)=CC3)n1` reads 168 to 170 °C; that for `OCc1c(CO)c2sc3ccccc3n2c1-c1ccc(F)cc1`, 155 to 156 °C; that for `CCn1cc(C(=O)O)c(=O)c2cc(F)c(N3CCC(CN)C3)nc21` (stereo not given), 217 to 218 °C. `C[C@@H]1N=C(c2ccccc2)c2cc([N+](=O)[O-])ccc2N(C)C1=O` registered a melting point of 84 to 85 °C. The result for `CCCCNc1ncnc2c1ncn2CCCN1CCC(NC(=O)c2ccccc2)CC1` reads 190 to 192 °C; that for `COC(=O)c1ccc(-c2cn(Cc3cccnc3)c3c2CCc2nc4c(nc2-3)C(C)(C)CCC4(C)C)cc1`, 245 to 247 °C.

`CC(C)(C)n1cc(C(=O)O)c(=O)c2cc(F)c(F)cc21` registered a melting point of over 260 °C. The value for `CC(C)(C)C(=O)Nc1n[nH]c(C(C)(C)C)c1Cl` was 156 to 158 °C; that for `CC(C)OC1(c2ccc(Cl)cc2)OC(c2ccncc2)=Nc2ccccc21` (stereo not given) was 114 to 115 °C. Molecule `Cn1nnnc1CC(=O)c1ccccc1N` yielded a melting point of 128 to 132 °C. The result for `Nc1ccc(-c2noc(-c3cnn4c(C(F)F)cc(-c5ccc(C(F)(F)F)cc5)nc34)n2)cn1` reads 242 °C. `O=C(O)Cc1cccc(OCc2ccccc2Cl)c1OCc1ccccc1Cl` yielded a melting point of 102 to 104 °C. For the molecule `O=C(O)Cc1ccc(OCCNC(=O)C2Cc3ccccc3N2S(=O)(=O)c2ccc(-c3cc(C(F)(F)F)ccc3F)cc2)cc1` (stereo not given), the melting point lay in the range of 81 to 84 °C. In turn, `COc1ccc(CNc2cc3c(Nc4ccc(F)c(C(F)(F)F)c4)ncnc3cn2)cc1` registered a melting point of 202 to 204 °C. The value for `Cc1ccc(-c2nc(Cc3cc4cc(N(OCc5ccccc5)C(N)=O)ccc4o3)c(C)o2)cc1` was 77 to 80 °C; that for `N#Cc1[nH]ccc1-c1ccc(Cl)cc1` was 114 to 115 °C; that for `N#Cc1cccnc1N1CCc2ccccc2CC1` was 110 to 112 °C. The result for `CCOc1ccc(F)c(N2Cc3cnc(NCCCCN(CC)CC)nc3N(C3CCCC3)C2=O)c1F` reads 129 to 130 °C; that for `O=C(O)c1cnn(-c2nc(-c3cc(C(F)(F)F)cc(C(F)(F)F)c3)cs2)c1C(F)(F)F`, 204 to 205 °C; that for `NC(=O)CNC(=O)c1cccc(-c2ccc3c(c2)N(c2ccc(Cl)cc2Cl)CC3)c1`, 184 to 186 °C. The value for `CS(=O)(=O)OCCC(c1ccccc1)c1ccccc1` was 83 to 85 °C.

For the molecule `COC(=O)C1=C(O)c2ccc3ccccc3c2S(=O)(=O)N1C`, the melting point was 229 to 230 °C. The result for `CC(=O)Oc1ccc2c(c1)C[C@H]1CCCN(C(C)=O)[C@H]1C2` (relative stereo) reads 108 to 113 °C; that for `O=c1[nH]c2cc(Cl)ccc2c(O)c1-c1ccccc1Br`, 357 to 358 °C. The value for `CC(COc1ccc(C(=O)O)c(O)c1)C[Si](C)(O[Si](C)(C)C)O[Si](C)(C)C` (stereo not given) was 117 to 118 °C; that for `CC(C)(C)OC(=O)N1CCC(CC(O)c2c3c(nn2-c2ccccc2)c(=O)[nH]c2ccccc23)CC1` (stereo not given) was 253 to 254 °C; that for `CN1CCc2cc(C=O)sc2C(c2ccccc2)C1` (stereo not given) was 88 °C. The result for `CCNc1nc(OC)c(C(=O)NCC2CCCN2CC)nc1Cl` (stereo not given) reads 167 to 169 °C; that for `O=C(O)CCCCCCCCN1NC(c2ccccc2)=C(c2ccccc2)NC1=O`, 97 to 100 °C; that for `CC(=O)c1ccc(OCC(=O)NC2CCN(Cc3ccc(Cl)c(Cl)c3)CC2)cc1`, 113 °C. `CCCS(=O)c1sc(C(N)=O)c2c1-c1c(cnn1C)CC2` (stereo not given) yielded a melting point of 194 to 195 °C. `COc1ccc(C(C)=Cc2ccc3ccccc3c2)cc1`: the melting point came out at 141 °C. Turning to `CC(C)C(NC(=O)c1ccc(C(=O)NCCCC(=O)O)cc1)C(=O)N1CCCC1C(=O)NC(C(=O)C(F)(F)F)C(C)C` (mixture of isomers), the melting point lay within 84 to 86 °C.

In turn, `Cc1ncc(Cl)c(C(=O)Nc2ccn3cc(-c4ccccc4)nc3n2)n1` showed a melting point of over 250 °C.

The molecule `O=C(NO)c1ccc(CNC(=O)c2[nH]c(-c3ccccc3)cc2-c2ccc(F)c(F)c2)cc1` came in with a melting point of 148 to 150 °C. The molecule `COC(=O)c1cc(OCC=C(Cl)Cl)cc(Cl)c1O` gave a melting point of 86 °C. The value for `O=C1CCC(c2ccc(OC(F)(F)F)cc2)N1` (stereo not given) was 105 to 106 °C. In turn, `N#Cc1ccc(-c2ccc(C(=O)NCCCCN3CCC(c4ccc5ccccc5c4O)CC3)cc2)cc1` came in with a melting point of 135 to 140 °C. `Cn1nc(C(F)(F)F)cc1Oc1nc(Oc2cc(C(F)(F)F)nn2C)c(F)c(Oc2cc(C(F)(F)F)nn2C)c1F`: the melting point is 119 °C. Consider `CCc1cc(-c2ccc(Cl)cc2)nc2c(C(=O)Nc3cccc(S(C)(=O)=O)c3)cnn12`, for which the melting point lay within 230 to 232 °C. The value for `COCC(=O)Nc1ccc2ncnc(Nc3cccc(Cl)c3)c2c1` was 177 to 180 °C.

In turn, `O=P1(C2CCCCC2)c2ccccc2CN1c1ccccc1` (stereo not given) displayed a melting point of 167 to 169 °C. `CCCCCCCCC#Cc1c(F)ccc(C(=O)O)c1F`: the melting point was 117 °C. The result for `Nc1nc2n(C3OC(CO)C(O)C3O)[nH]cc-2c(=S)n1` (stereo not given) reads 222 to 224 °C; that for `O=[N+]([O-])c1cc(NS(=O)(=O)CCl)ccc1F`, 112 to 113 °C; that for `NC(=O)c1nc(-c2cccc(O)c2)nc2c1[nH]c(=O)n2C1CCCC1`, 360 to 361 °C. The result for `O=[N+]([O-])c1ccc(-c2ccc([N+](=O)[O-])c(Cl)c2)cc1Cl` reads 221 to 222 °C; that for `O=C1CC(c2cccnc2)=NN1c1ccccc1`, 102 to 103 °C; that for `CC(C)(C)c1cc(-c2n[nH]c(=O)s2)cc(C(C)(C)C)c1O`, 229 °C. `CCOC(=O)Cc1ccc(Cc2nc3n(-c4c(Cl)cccc4Cl)[nH]c(C(C)C)c-3c(=O)n2)cc1` showed a melting point of 168 to 169 °C. Regarding `CC(=O)OCCn1c(C)nc2ccccc2c1=O`, the melting point fell in the range of 158 to 160 °C.

Take `O=C(C[C@@H](O)C(=O)O)c1ccccc1`: the melting point lay in the range of 128 to 131 °C.

Molecule `CCC12CCC3C4CCC(=O)C=C4CCC3C1CCC2C(C)=O` (stereo not given) gave a melting point of 138 to 142 °C. `CC(=O)NC[C@H]1CN(c2ccc(N3CCN(C(=O)OC(C)(C)C)CC3)c(F)c2)C(=O)O1` yielded a melting point of 153 to 159 °C. The value for `Cc1nc(-c2ccc3c(c2)OCO3)c2cc3c(cc2n1)OCO3` was 207 to 210 °C; that for `O=c1cc(OCc2cccc(Cl)c2)ccn1Cc1ccccc1` was 95.5 to 95.7 °C; that for `CCOC(=O)CC(NC(=O)CNC(=O)c1csc(NC(=N)N)n1)c1cccnc1` (racemic) was 114 °C. `Cc1cc2nc(C)n(COC(=O)C(C)(C)C)c(=O)c2cc1CBr` displayed a melting point of 149 to 152 °C.

With `COc1ccc(C2(CCCCl)S(=O)(=O)CCCS2(=O)=O)cc1OC`, the melting point lay in the range of 183 to 184 °C. The result for `CCC(C=O)(CC)SN(C)C(=O)ON=C1SC(C)(C)C(=O)N1C` reads 105 to 106 °C; that for `CCOC(=O)Cc1c(CCc2ccc(O)cc2)oc2ccc(C#N)cc12`, 134 to 136 °C. Consider `O=C(Nc1n[nH]c(-c2ccc(F)cc2)c1-c1ccncc1)C(F)(F)F`, for which the melting point was 260 to 265 °C. The result for `CCCCCCCCCC(C)(C)c1cc(-c2cc3ccc(C(=O)O)cc3o2)ccc1OC` reads 150 °C.

`CC(C)(C)[Si](C)(C)OCCc1c(N)nc(SCc2ccc3ccccc3c2)nc1O` had a melting point of 156 to 158 °C. The value for `O=C(O)Cc1ccc2c(c1)C(=O)c1cc(Cl)ccc1CS2` was 187 to 189 °C; that for `CCOC(=O)CN1c2ccccc2Oc2ccccc21` was 96 to 97 °C; that for `COc1ccc(-c2nc(OC(=O)N(C)C)nn2-c2ccc(OC)cc2)cc1` was 121 to 123 °C. The value for `CCOP(=O)(/C=C/c1cn(-c2ccccc2)nc1OCc1ccc(OCc2cn(-c3ccccn3)nc2C)c(OC)c1)OCC` was 103 to 104 °C; that for `OCc1cc2c3n(ccc-2n1)CC(Br)=N3` was 113 to 115 °C; that for `O=C1NC(=O)C(=Cc2ccc(OCC3CN(c4ccccn4)CCO3)cc2)S1` (stereo not given) was 188 °C. Molecule `CC(C)(C)NC(=O)c1ccc(C(F)(F)F)cc1` came in with a melting point of 146 to 148 °C. Regarding `O=[N+]([O-])c1ccc(CN2CCCCc3sccc32)cc1`, the melting point is 141 to 142 °C. Molecule `CC(=CC(=O)O)c1ccc2[nH]cc(-c3cc(C(C)(C)C)cc(C(C)(C)C)c3OCC(F)F)c2c1` showed a melting point of 135 to 145 °C. The result for `O=C1C=CC(=O)c2cc(C(F)(F)F)c(C(F)(F)F)cc21` reads 91 to 94 °C; that for `CCc1cc(CC)c(NC(=S)NC2CCCCC2)c(CC)c1`, 97 to 99 °C. In the case of `CCCCc1oc2ccccc2c1-c1ncc(-c2ccc3cc(OCc4ccc(C(=O)O)cc4)ccc3c2)o1`, the melting point lay in the range of 251 to 254 °C.

With `O=C1C=C(c2ccccc2)S(=O)(=O)C(c2cccs2)=C1`, the melting point lay within 162 to 164 °C.
